Measured values: patent publication US11780821B2, “Inhibitors of fibroblast activation protein” (Praxis Biotech LLC, priority 2017, dated 2023)
pIC50: −log10 of the molar value. Read-outs that look alike come from different tables or passages of the source.

Experiments:
[1] = PK study in hamsters (IV and PO); format: in vivo; conditions: male, Golden Syrian, plasma, hamster
Method: To assess the effect of FAP inhibition by an exemplary compound over the cleavage of endogenously produced FGF21, in vivo PK/PD studies were conducted in male Golden Syrian hamsters following single intravenous and oral administration of an exemplary compound. Compound 13 (an exemplary compound) was formulated in dimethyl sulfoxide (DMSO)/Solutol® HS 15 (BASF, Germany)/phosphate buffered saline (PBS, Sigma, USA) (5/5/90, v/v/v) at 0.2 mg/mL for IV injection and polyethylene glycol (PEG) 200 (Sigma, USA)/water for injection (WFI; Tai-Yu, Taiwan) (50/50, v/v) at 1 mg/mL for PO administration. The dosing volumes were 5 mL/kg for IV and 10 mL/kg for PO. Hamsters from Group 1 received an intravenous bolus via jugular vein of 1 mg/kg of compound 13 (an exemplary compound). On the other hand, hamsters from Group 2 received an intragastric bolus of 10 mg/kg of compound 13 (an exemplary compound) using feeding needles. Plasma samples were collected at 5, 10, 15, 30, 60, 120, 240, 360, 480 and 1440 minutes post-dose in both IV and PO groups. Hamsters from group 3 were not dosed and were used to collect samples of zero time point and baseline levels of FAP activity and endogenous FGF21. […]

[2] = biological target: T1, recombinant mouse FAPα (rmFAPα) (Mus musculus, UniProt P97321); assay: FAPα enzymatic exopeptidase (dipeptidase) activity assay; format: biochemical; conditions: exopeptidase, read-out: rmFAPα (exo IC50)
T1 construct: purchased R&S system (so in the source)
T1 sequence (P97321 1-761): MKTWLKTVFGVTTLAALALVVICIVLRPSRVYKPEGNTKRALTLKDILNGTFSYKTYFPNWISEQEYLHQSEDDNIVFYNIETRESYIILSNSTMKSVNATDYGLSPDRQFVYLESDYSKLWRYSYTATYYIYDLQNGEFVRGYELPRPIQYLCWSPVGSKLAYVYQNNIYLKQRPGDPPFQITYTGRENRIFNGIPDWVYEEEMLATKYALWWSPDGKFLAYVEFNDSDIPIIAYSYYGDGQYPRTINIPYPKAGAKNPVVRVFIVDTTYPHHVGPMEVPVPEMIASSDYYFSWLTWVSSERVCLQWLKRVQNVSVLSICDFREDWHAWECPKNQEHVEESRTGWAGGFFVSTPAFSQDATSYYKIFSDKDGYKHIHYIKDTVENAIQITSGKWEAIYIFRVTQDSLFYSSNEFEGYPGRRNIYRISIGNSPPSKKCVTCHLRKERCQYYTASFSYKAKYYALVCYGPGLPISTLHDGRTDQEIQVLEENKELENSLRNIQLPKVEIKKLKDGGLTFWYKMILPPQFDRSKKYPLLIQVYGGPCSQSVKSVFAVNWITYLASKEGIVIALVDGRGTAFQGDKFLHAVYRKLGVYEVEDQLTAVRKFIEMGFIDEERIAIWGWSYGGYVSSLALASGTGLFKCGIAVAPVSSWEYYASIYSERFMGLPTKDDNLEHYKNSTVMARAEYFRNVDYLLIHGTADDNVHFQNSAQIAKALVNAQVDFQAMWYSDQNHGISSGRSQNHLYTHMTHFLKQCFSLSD

[3] = biological target: T2, recombinant mouse PREP (rmPREP) (Mus musculus, UniProt Q9QUR6); assay: PREP enzymatic activity assay; format: biochemical; conditions: Z-Gly-Pro-AMC substrate
T2 construct: purchased R&S system (so in the source)
T2 sequence (Q9QUR6 whole entry): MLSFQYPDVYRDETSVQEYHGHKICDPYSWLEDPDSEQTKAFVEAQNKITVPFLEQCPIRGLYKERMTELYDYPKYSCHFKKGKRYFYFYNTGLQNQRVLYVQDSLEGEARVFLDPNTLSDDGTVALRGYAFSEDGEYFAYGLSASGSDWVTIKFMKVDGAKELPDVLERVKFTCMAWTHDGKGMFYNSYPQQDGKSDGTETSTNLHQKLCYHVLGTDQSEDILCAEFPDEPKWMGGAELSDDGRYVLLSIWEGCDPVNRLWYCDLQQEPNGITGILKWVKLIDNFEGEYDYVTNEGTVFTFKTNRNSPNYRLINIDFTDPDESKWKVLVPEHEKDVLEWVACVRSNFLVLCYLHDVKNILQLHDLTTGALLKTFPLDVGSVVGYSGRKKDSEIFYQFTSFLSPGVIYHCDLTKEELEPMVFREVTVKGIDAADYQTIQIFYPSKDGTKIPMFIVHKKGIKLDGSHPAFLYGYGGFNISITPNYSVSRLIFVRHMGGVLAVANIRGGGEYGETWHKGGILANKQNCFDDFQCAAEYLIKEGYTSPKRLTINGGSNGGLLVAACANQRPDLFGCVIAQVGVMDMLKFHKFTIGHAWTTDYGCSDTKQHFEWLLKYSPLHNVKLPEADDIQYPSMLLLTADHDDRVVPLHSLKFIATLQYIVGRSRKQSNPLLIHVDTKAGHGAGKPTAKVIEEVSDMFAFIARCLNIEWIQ
Method: 7-Amino-4-Methylcoumarin (AMC) release was detected by measuring fluorescence at Ex/Em 380/460 nm using a Multifunction Microplate Reader (Synergy 4, Biotek). All measurements were carried out in triplicate.

[4] = biological target: T3, recombinant human FAPα (rhFAPα) (Homo sapiens, UniProt Q12884); assay: FAPα enzymatic endopeptidase (collagenase) activity assay; format: biochemical; conditions: DQ collagen substrate, read-out: rhFAPα (endo IC50)
T3 construct: purchased R&S system (so in the source)
T3 sequence (Q12884 1-760): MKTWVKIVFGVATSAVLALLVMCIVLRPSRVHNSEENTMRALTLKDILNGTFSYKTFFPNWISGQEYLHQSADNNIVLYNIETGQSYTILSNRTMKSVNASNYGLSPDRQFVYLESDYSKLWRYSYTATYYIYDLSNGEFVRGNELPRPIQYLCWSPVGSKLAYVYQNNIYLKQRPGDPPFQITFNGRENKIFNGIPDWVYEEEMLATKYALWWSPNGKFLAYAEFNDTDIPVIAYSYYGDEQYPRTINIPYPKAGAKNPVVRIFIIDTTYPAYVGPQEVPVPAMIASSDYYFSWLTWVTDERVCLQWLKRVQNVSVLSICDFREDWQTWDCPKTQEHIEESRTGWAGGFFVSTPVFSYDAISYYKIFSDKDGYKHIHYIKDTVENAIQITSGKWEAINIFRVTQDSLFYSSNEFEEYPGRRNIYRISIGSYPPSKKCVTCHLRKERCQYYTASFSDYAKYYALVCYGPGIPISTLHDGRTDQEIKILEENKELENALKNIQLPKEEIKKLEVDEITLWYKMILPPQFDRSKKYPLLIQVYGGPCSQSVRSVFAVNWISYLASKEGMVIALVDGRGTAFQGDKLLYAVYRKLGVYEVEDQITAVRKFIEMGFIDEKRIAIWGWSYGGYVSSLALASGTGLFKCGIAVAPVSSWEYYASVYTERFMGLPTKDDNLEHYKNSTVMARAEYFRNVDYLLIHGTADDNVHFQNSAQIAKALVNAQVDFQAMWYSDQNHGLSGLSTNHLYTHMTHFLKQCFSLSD
Method: FAPα enzymatic endopeptidase (collagenase) activity assay. […] All measurements were performed as a single point.

[5] = biological target: T4, recombinant mouse DPPIV (rmDPPIV) (Mus musculus, UniProt P28843); assay: DPPIV enzymatic activity assay; format: biochemical; conditions: H-Gly-Pro-pNA substrate
T4 construct: purchased R&S system (so in the source)
T4 sequence (P28843 whole entry): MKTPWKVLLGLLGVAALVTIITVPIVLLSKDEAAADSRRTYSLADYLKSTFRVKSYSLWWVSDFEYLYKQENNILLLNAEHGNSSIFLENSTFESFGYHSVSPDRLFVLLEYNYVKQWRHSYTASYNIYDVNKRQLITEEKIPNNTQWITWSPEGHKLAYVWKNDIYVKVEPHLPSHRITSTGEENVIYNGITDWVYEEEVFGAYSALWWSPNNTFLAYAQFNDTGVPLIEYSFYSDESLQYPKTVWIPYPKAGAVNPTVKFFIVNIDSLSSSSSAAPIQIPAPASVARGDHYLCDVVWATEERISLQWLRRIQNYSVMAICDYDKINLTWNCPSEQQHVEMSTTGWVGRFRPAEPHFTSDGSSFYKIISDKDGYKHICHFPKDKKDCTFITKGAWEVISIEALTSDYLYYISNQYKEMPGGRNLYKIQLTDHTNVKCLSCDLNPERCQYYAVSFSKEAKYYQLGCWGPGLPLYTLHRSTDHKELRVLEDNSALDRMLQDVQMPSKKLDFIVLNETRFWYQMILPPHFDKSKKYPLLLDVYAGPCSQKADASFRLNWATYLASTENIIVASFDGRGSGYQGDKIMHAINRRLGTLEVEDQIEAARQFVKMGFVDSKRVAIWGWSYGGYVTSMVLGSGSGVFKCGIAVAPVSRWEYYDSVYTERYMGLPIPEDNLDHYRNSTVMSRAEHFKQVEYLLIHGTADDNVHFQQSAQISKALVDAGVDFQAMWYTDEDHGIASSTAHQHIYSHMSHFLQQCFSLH

N#C[C@@H]1CC(F)(F)CN1C(=O)CNC(=O)c1ccncc1-c1ccccc1 [Compound 13, (S)—N-(2-(2-cyano-4,4-difluoropyrrolidin-1-yl)-2-oxoethyl)-3-phenylisonicotinamide]
AUC(0-t) ([1]; intravenous 1 mg/kg): 255 ng·h/mL
AUC(0-t) ([1]; oral 10 mg/kg): 350 ng·h/mL
pIC50 ([2]; Table 2, Z-Gly-Pro-AMC): > 6.00
pIC50 ([2]; Table 3): > 6.00
pIC50 [3]: < 5.00
pIC50 [4]: > 6.00
pIC50 [5]: < 5.00

N#C[C@@H]1CC(F)(F)CN1C(=O)CNC(=O)c1c[nH]c(=O)c(-c2ccccc2)c1 [Compound 14, (S)—N-(2-(2-cyano-4,4-difluoropyrrolidin-1-yl)-2-oxoethyl)-6-oxo-5-phenyl-1,6-dihydropyridine-3-carboxamide]
pIC50 [3]: < 5.00
pIC50 [4]: > 6.00
pIC50 [5]: < 5.00

N#C[C@@H]1CC(F)(F)CN1C(=O)CNC(=O)c1ccncc1C1CC1 [Compound 24, (S)—N-(2-(2-cyano-4,4-difluoropyrrolidin-1-yl)-2-oxoethyl)-3-cyclopropylisonicotinamide]
pIC50 ([2]; Table 2, Z-Gly-Pro-AMC): > 6.00
pIC50 ([2]; Table 3): > 6.00
pIC50 [4]: > 6.00

N#C[C@@H]1CC(F)(F)CN1C(=O)CNC(=O)c1ccncc1-c1ccc(F)cc1 [Compound 52, (S)—N-(2-(2-cyano-4,4-difluoropyrrolidin-1-yl)-2-oxoethyl)-3-(4-fluorophenyl)isonicotinamide]
pIC50 ([2]; Table 2, Z-Gly-Pro-AMC): > 6.00
pIC50 ([2]; Table 3): > 6.00

N#C[C@@H]1CC(F)(F)CN1C(=O)CNC(=O)c1ccncc1N1CCOCC1 [Compound 88, N-[2-[(2S)-2-cyano-4,4-difluoro-pyrrolidin-1-yl]-2-oxo-ethyl]-3-morpholino-pyridine-4-carboxamide]
pIC50 ([2]; Table 3): > 6.00

N#C[C@@H]1CC(F)(F)CN1C(=O)CNC(=O)c1ccncc1C1=CCNCC1 [Compound 105, (S)—N-(2-(2-cyano-4,4-difluoropyrrolidin-1-yl)-2-oxoethyl)-1′,2′,3′,6′-tetrahydro-[3,4′-bipyridine]-4-carboxamide 2,2,2-trifluoroacetate]
pIC50 [4]: > 6.00

N#C[C@@H]1CC(F)(F)CN1C(=O)CNC(=O)c1c[nH]c(=O)cc1-c1ccc(F)cc1 [Compound 109, (S)—N-(2-(2-cyano-4,4-difluoropyrrolidin-1-yl)-2-oxoethyl)-4-(4-fluorophenyl)-6-oxo-1,6-dihydropyridine-3-carboxamide]
pIC50 [4]: > 6.00

N#C[C@@H]1CC(F)(F)CN1C(=O)CNC(=O)c1c[nH]c(=O)c2ccccc12 [Example 1, (S)—N-(2-(2-cyano-4,4-difluoropyrrolidin-1-yl)-2-oxoethyl)-1-oxo-1,2-dihydroisoquinoline-4-carboxamide]
pIC50 ([2]; Table 2, Z-Gly-Pro-AMC): > 6.00
pIC50 ([2]; Table 3): > 6.00
pIC50 [3]: 5.00 to 6.00
pIC50 [4]: > 6.00
pIC50 [5]: 5.00 to 6.00
